21 compounds from patent publication US20240228469A1, “PCSK9 INHIBITORS AND METHODS OF USE THEREOF” (AstraZeneca AB, priority 2022, published 2024) can be followed below.

The target in assay [1] is GSK3β (Glycogen synthase kinase-3 beta) (Homo sapiens, UniProt P49841). As to the kind of experiment: Assay 6 GSK3β assay (ThermoFisher Z-Lyte FRET). It counts as biochemical. The settings on record: ATP Conc: 10 μM, geometric mean; read-out: Assay 6 (GSK3β FRET-Z-Lyte Cr) GMean IC50. Put shortly: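 Z-Lyte FRET: 0.22-0.92 ng kinase with 2 μM Ser/Thr 09 peptide in HEPES pH 7.5, MgCl2, EGTA, 60 min at room temperature, then 60 min development. Compounds in 1% DMSO, 10-point 3-fold series from 10 μM; sigmoidal dose-response fit.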
GSK3β (Glycogen synthase kinase-3 beta), sequence (P49841 whole entry): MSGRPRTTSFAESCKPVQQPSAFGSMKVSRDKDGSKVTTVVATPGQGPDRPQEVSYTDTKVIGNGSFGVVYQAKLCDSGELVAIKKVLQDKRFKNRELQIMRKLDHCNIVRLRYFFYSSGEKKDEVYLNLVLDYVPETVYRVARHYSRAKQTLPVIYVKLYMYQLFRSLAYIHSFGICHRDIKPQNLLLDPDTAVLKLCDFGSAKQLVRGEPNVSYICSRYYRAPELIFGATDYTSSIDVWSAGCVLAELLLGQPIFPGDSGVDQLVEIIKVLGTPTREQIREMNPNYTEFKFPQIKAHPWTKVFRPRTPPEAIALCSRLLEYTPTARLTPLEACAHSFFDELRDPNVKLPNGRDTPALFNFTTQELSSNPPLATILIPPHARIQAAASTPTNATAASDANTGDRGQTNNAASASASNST

Assay [2] has as its target PCSK9 (Homo sapiens, UniProt Q8NBP7). As to the kind of experiment: Assay 2 Biophysical human PCSK9 assay (SPR, Biacore). It counts as binding. Also on record: biotinylated human PCSK9 (31-692)-Avi-His6; His6 (C). The settings on record: single-cycle kinetics, 30° C., geometric mean, read-out: Assay 2 (PCSK9 BIAcore DBA Cr) GMean Kd. The protocol:
The SPR binding experiments were performed on a Biacore S200 optical biosensor unit at 30° C. A Series S Sensor Chip SA that is designed to bind biotinylated molecules for interaction analysis in Biacore systems was equilibrated at room temperature prior to use. The running buffer for protein tethering and subsequent ligand binding experiments was 10 mM HEPES pH 7.4, 150 mM NaCl, 0.05% (v/v) Tween 20 pH 7.4.
For the surface tethering of PCSK9, biotinylated human PCSK9 (31-692)-Avi-His6 at a concentration of 0.5 mg/mL was used. Prior to the surface tethering, the surface was exposed to a solution of 50 mM NaOH, 500 mM NaCl via 3 consecutive injections of this solution with a contact time of 60 s and a flowrate of 10 μL min^−1 to remove non-conjugated streptavidin. The PCSK9 protein was diluted to a concentration of 20 μg/mL using running buffer and injected with a contact time of 180-300 s and a flowrate of 10 μL min^−1 over a single flow channel (typically flow channel 2 or flow channel 4) with the aim to achieve protein capture levels of >5000 response units (RU). Remaining biotin binding sites were blocked via 2 consecutive injections of a 10 μM D-biotin solution in running buffer with a contact time of 60 s and a flowrate of 10 μL min^−1 over all flow-channels. Flow-channels 1 and 3 typically served as a reference surface throughout the subsequent binding experiments.
The binding experiments were all performed at a flow rate of 30 PL min^−1 and by employing the method of single-cycle kinetics. This approach involves the sequential injection of a compound concentration series without regeneration steps. A contact time between 90-150 s was selected, which was followed by a 40 min dissociation phase to allow for a proper estimation of the dissociation rate constant. Test compounds were delivered in DMSO at a concentration of 10 mM and a digital dispenser HP D300 was used to set up the compound concentration series using 6 concentrations. The tested concentrations have been 30, 100, 300, 1000, 3000 and 10000 nM. Prior to injecting any compound, the surfaces were equilibrated by injecting running buffer over them in three separate pulses. The data collection rate was set to 10 Hz.
The raw sensorgrams of the compound injections were first subjected to reference subtraction (subtracting the signal from flow channel 1 and/or 3 from the signal from channels 2 and/or 4 respectively) and then blank subtraction (subtracting the signal from injecting DMSO controls from the reference subtracted data). The resulting double-referenced sensorgrams were then fitted using a 1:1 binding interaction model using the manufactures software package to extract kinetic- and affinity data. Active compounds have been defined by creating a detectable binding signal at the highest compound concentration ([…]) of 3 RUs. Kinetic- and affinity data on active compounds are only provided for those compounds where the binding signal at the highest compound concentration ([…]) is 50% of the theoretical maximum binding signal for a 1:1 binding interaction (Rmax, typically between 15-20 RUs) in order to enable a proper fitting of the data.
On the technique in general: In SPR one partner is held on a chip, and binding of the other changes the refractive index at the surface.

PCSK9, sequence (Q8NBP7 31-692): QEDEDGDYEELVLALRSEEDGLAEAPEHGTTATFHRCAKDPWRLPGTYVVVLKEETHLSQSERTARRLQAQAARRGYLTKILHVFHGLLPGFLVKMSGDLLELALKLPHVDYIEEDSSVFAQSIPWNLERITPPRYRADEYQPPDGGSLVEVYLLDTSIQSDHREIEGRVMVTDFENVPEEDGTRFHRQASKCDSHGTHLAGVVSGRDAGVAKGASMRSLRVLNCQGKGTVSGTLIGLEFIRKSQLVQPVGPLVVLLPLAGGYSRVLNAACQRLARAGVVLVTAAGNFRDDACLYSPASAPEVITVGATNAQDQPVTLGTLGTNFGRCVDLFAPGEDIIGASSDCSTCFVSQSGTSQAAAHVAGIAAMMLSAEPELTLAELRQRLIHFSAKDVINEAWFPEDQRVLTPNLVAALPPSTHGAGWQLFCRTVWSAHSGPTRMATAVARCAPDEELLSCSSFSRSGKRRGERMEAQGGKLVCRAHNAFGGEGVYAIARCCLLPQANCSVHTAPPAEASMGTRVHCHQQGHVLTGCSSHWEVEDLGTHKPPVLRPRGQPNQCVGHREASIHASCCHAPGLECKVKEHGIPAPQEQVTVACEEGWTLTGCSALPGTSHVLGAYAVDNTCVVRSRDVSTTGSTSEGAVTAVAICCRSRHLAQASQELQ

For the compound `Cn1c(=O)n(-c2ccc(N[C@H]3CC[C@H](Nc4ncc(C5CC5)nn4)C3)nc2)c2ccc(C(=O)O)cc21` [Example 121, 1-(6-(((1S,3S)-3-((6-Cyclopropyl-1,2,4-triazin-3-yl)amino)cyclopentyl)amino)pyridin-3-yl)-3-methyl-2-oxo-2,3-dihydro-1H-benzo[d]imidazole-5-carboxylic acid], the concentration for half-maximal inhibition (IC50) in assay [1] was found to be 5050 nM. Besides, in assay [2], the equilibrium dissociation constant (Kd) was 1.6 nM.

In the case of `N#Cc1cccn(-c2ccc(N[C@H]3CC[C@H](Nc4ncc(C5CC5)nn4)C3)nc2)c1=O` [Example 58, 6′-(((1S,3S)-3-((6-Cyclopropyl-1,2,4-triazin-3-yl)amino)cyclopentyl)amino)-2-oxo-2H-[1,3′-bipyridine]-3-carbonitrile], in assay [1], the IC50 is > 10000 nM. Moreover, the dissociation constant (Kd) in assay [2] was found to be 2.2 nM.

As to `O=c1c(OC(F)(F)F)cccn1-c1ccc(N[C@H]2CC[C@H](Nc3ncc(C4CC4)nn3)C2)nc1` [Example 52, 6′-(((1S,3S)-3-((6-Cyclopropyl-1,2,4-triazin-3-yl)amino)cyclopentyl)amino)-3-(trifluoromethoxy)-2H-[1,3′-bipyridin]-2-one], the half-inhibitory concentration (IC50) in assay [1] was > 10000 nM. Moreover, the equilibrium dissociation constant (Kd) in assay [2] worked out at 0.7 nM.

Consider `O=c1c(Cl)cccn1-c1ccc(N[C@H]2CC[C@H](Nc3ncc(C4CC4)nn3)C2)nc1` [Example 55, 3-Chloro-6′-(((1S,3S)-3-((6-cyclopropyl-1,2,4-triazin-3-yl)amino)cyclopentyl)amino)-2H-[1,3′-bipyridin]-2-one], for which the IC50 in assay [1] turned out to be 1600 nM. Further, the Kd in assay [2] is 0.4 nM.

Take `O=c1c(C(F)(F)F)cccn1-c1ccc(N[C@H]2CC[C@H](Nc3ncc(C4CC4)nn3)C2)nc1` [Example 51, 6′-(((1S,3S)-3-((6-Cyclopropyl-1,2,4-triazin-3-yl)amino)cyclopentyl)amino)-3-(trifluoromethyl)-2H-[1,3′-bipyridin]-2-one]: the IC50 in assay [1] is > 10000 nM. In assay [2], the equilibrium dissociation constant (Kd) was determined as 0.9 nM.

As to `O=c1ccncn1-c1ccc(N[C@H]2CC[C@H](Nc3ncc(C4CC4)nn3)C2)nc1` [Example 114, 3-(6-(((1S,3S)-3-((6-Cyclopropyl-1,2,4-triazin-3-yl)amino)cyclopentyl)amino)pyridin-3-yl)pyrimidin-4(3H)-one], the half-inhibitory concentration (IC50) in assay [1] is > 10000 nM. In addition, the dissociation constant (Kd) in assay [2] turned out to be 5.3 nM.

`N#Cc1ccc(=O)n(-c2ccc(N[C@H]3CC[C@H](Nc4ncc(C5CC5)nn4)C3)nc2)c1` [Example 56, 6′-(((1S,3S)-3-((6-Cyclopropyl-1,2,4-triazin-3-yl)amino)cyclopentyl)amino)-2-oxo-2H-[1,3′-bipyridine]-5-carbonitrile]: the concentration for half-maximal inhibition (IC50) in assay [1] was > 10000 nM. Moreover, the dissociation constant Kd in assay [2] turned out to be 7.4 nM.

Turning to `Cn1c(=O)n(-c2ccc(N[C@H]3CC[C@H](Nc4ncc(C5CC5)nn4)C3)nc2)c2ccc(C#N)cc21` [Example 117, 1-(6-(((1S,3S)-3-((6-Cyclopropyl-1,2,4-triazin-3-yl)amino)cyclopentyl)amino)pyridin-3-yl)-3-methyl-2-oxo-2,3-dihydro-1H-benzo[d]imidazole-5-carbonitrile], the IC50 in assay [1] was > 10000 nM. The dissociation constant Kd in assay [2] worked out at 0.9 nM.

As for `COc1cccn(-c2ccc(N[C@H]3CC[C@H](Nc4ncc(C)nn4)C3)nc2)c1=O` [Example 132, 3-Methoxy-6′-(((1S,3S)-3-((6-methyl-1,2,4-triazin-3-yl)amino)cyclopentyl)amino)-2H-[1,3′-bipyridin]-2-one], the IC50 in assay [1] was 2060 nM. The Kd in assay [2] was 1.5 nM.

In the case of `Cc1cnc(N[C@H]2CC[C@H](Nc3ccc(-n4c(=O)n(C)c5cccnc54)cn3)C2)nn1` [Example 212, 1-Methyl-3-(6-(((1S,3S)-3-((6-methyl-1,2,4-triazin-3-yl)amino)cyclopentyl)amino)pyridin-3-yl)-1,3-dihydro-2H-imidazo[4,5-b]pyridin-2-one], the IC50 in assay [1] was > 10000 nM. Moreover, the equilibrium dissociation constant (Kd) in assay [2] was 1.7 nM.

For `CN1CC(=O)N(c2ccc(N[C@H]3CC[C@H](Nc4ncc(C5CC5)nn4)C3)nc2)C1=O` [Example 57, 3-(6-(((1S,3S)-3-((6-Cyclopropyl-1,2,4-triazin-3-yl)amino)cyclopentyl)amino)pyridin-3-yl)-1-methylimidazolidine-2,4-dione], the IC50 in assay [1] was > 10000 nM. Besides, the equilibrium dissociation constant (Kd) in assay [2] is 7.5 nM.

For the compound `Cc1cccn(-c2ccc(N[C@H]3CC[C@H](Nc4ncc(C5CC5)nn4)C3)nc2)c1=O` [Example 66, 6′-(((1S,3S)-3-((6-Cyclopropyl-1,2,4-triazin-3-yl)amino)cyclopentyl)amino)-3-methyl-2H-[1,3′-bipyridin]-2-one], in assay [1], the half-maximal inhibitory concentration (IC50) is > 10000 nM. Further, in assay [2], the equilibrium dissociation constant (Kd) worked out at 1.5 nM.

`O=c1cccnn1-c1ccc(N[C@H]2CC[C@H](Nc3ncc(C4CC4)nn3)C2)nc1` [Example 118]: the 50% inhibitory concentration (IC50) in assay [1] was > 10000 nM. The Kd in assay [2] was found to be 8.5 nM.

On to `Cc1cnc(N[C@H]2CC[C@H](Nc3ccc(-n4nccc(Cl)c4=O)cn3)C2)nn1` [Example 221, 4-Chloro-2-(6-(((1S,3S)-3-((6-methyl-1,2,4-triazin-3-yl)amino)cyclopentyl)amino)pyridin-3-yl)pyridazin-3(2H)-one], for which, in assay [1], the half-maximal inhibitory concentration (IC50) was > 10000 nM. Moreover, in assay [2], the Kd was found to be 1.7 nM.

Turning to `COc1ccc(=O)n(-c2ccc(N[C@H]3CC[C@H](Nc4ncc(C)nn4)C3)nc2)c1` [Example 133, 5-Methoxy-6′-(((1S,3S)-3-((6-methyl-1,2,4-triazin-3-yl)amino)cyclopentyl)amino)-2H-[1,3′-bipyridin]-2-one], the IC50 in assay [1] worked out at 32 nM. Also, in assay [2], the Kd stood at 17 nM.

Regarding `Cn1c(=O)n(-c2ccc(N[C@H]3CC[C@H](Nc4ncc(C5CC5)nn4)C3)nc2)c2ncccc21` [Example 63, 3-(6-(((1S,3S)-3-((6-Cyclopropyl-1,2,4-triazin-3-yl)amino)cyclopentyl)amino)pyridin-3-yl)-1-methyl-1,3-dihydro-2H-imidazo[4,5-b]pyridin-2-one], the IC50 in assay [1] was > 10000 nM. Further, in assay [2], the Kd came to 1.4 nM.

For `COc1cccn(-c2ccc(N[C@H]3CC[C@H](Nc4ncc(C5CC5)nn4)C3)nc2)c1=O` [Example 64, 6′-(((1S,3S)-3-((6-Cyclopropyl-1,2,4-triazin-3-yl)amino)cyclopentyl)amino)-3-methoxy-2H-[1,3′-bipyridin]-2-one], the IC50 in assay [1] came out at 385 nM. In assay [2], the equilibrium dissociation constant (Kd) is 0.4 nM.

Consider `Cc1cnc(N[C@H]2CC[C@H](Nc3ccc(-n4cccc(C(F)(F)F)c4=O)cn3)C2)nn1` [Example 135, 6′-(((1S,3S)-3-((6-Methyl-1,2,4-triazin-3-yl)amino)cyclopentyl)amino)-3-(trifluoromethyl)-2H-[1,3′-bipyridin]-2-one], for which the IC50 in assay [1] was > 10000 nM. For the same compound, the Kd in assay [2] was determined as 3.9 nM.

In the case of `Cc1cnc(N[C@H]2CC[C@H](Nc3ccc(-n4cc(C#N)ccc4=O)cn3)C2)nn1` [Example 128, 6′-(((1S,3S)-3-((6-Methyl-1,2,4-triazin-3-yl)amino)cyclopentyl)amino)-2-oxo-2H-[1,3′-bipyridine]-5-carbonitrile], in assay [1], the IC50 was > 10000 nM. The dissociation constant (Kd) in assay [2] was 30 nM.

For `Cc1cnc(N[C@H]2CC[C@H](Nc3ccc(-n4c(=O)n(C)c5ccc(C#N)cc54)cn3)C2)nn1` [Example 210, 1-Methyl-3-(6-(((1S,3S)-3-((6-methyl-1,2,4-triazin-3-yl)amino)cyclopentyl)amino)pyridin-3-yl)-2-oxo-2,3-dihydro-1H-benzo[d]imidazole-5-carbonitrile], the IC50 in assay [1] is > 10000 nM. For the same compound, the Kd in assay [2] was 0.6 nM.

Consider `Cc1cnc(N[C@H]2CC[C@H](Nc3ccc(-n4cccc(Cl)c4=O)cn3)C2)nn1` [Example 129, 3-Chloro-6′-(((1S,3S)-3-((6-methyl-1,2,4-triazin-3-yl)amino)cyclopentyl)amino)-2H-[1,3′-bipyridin]-2-one], for which the 50% inhibitory concentration (IC50) in assay [1] stood at 4850 nM. For the same compound, in assay [2], the Kd amounted to 1.3 nM.

What is called IC50 is the midpoint of a concentration-inhibition curve. Usually Kd stands for a measure of binding affinity in units of concentration.
